Laboratory results: patent US11267825B2 (AICURIS GMBH & CO. KG, priority 2017, dated 2022)
Read-outs that look alike come from different tables or passages of the source.

Columns and labels:
HBV = assay: Determination of HBV DNA from the supernatants of HepAD38 cells (anti-HBV activity); type: cell-based, hepatitis B virus; details: Hepatitis B virus, read-out: Cell Activity (EC50)
How it was run: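 HepAD38 cells (60,000/well) were treated with half-log compound dilutions in tetracycline-free medium to induce HBV production. On day 6, HBV DNA was purified from filtered supernatant and quantified by real-time PCR against plasmid standards. EC50 values came from non-linear regression of relative copy numbers, typically from three experiments in triplicate.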

HBV core protein = HBV core protein (UniProt P03146); type: biochemical; details: read-out: Assembly Activity (IC50); BODIPY-FL labelled core protein, assembly started with NaCl, read after 6 min
Sequence of HBV core protein (P03146 whole entry, looked up): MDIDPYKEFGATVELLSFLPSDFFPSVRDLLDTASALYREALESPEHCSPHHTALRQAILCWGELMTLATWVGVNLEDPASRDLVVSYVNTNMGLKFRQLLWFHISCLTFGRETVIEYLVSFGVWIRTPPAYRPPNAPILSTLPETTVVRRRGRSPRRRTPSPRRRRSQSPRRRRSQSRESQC
How it was run: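 Fluorescence-quenching assembly assay using E. coli-expressed core protein 1–149 plus Cys150, labelled with BODIPY-FL maleimide, at 1.0–2.0 μM in 50 mM HEPES pH 7.5, 0.5% DMSO. Assembly started with NaCl to […]; fluorescence (ex 477/em 525 nm) read after 6 min. EC50 by non-linear regression, 8-point 0.5-log dilutions.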

[1] = 144 h, HBV DNA in HepAD38 supernatant at day 6

| Compound | EC50 (HBV; [1]) | IC50 (HBV core protein) | EC50 (HBV; HePAD38, 144 h) |
| --- | --- | --- | --- |
| C[C@H](O)CNc1nc2c(s1)CN(C(=O)c1cc3ccccc3[nH]1)CC2 [Example 99, (2S)-1-{[5-(1H-indole-2-carbonyl)-4H,5H,6H,7H-[1,3]thiazolo[5,4-c]pyridin-2-yl]amino}propan-2-ol] | < 1 µM | < 5 µM |  |
| CC(C)OC(=O)[C@H](C)NP(=O)(OCCNc1nc2c(s1)CN(C(=O)c1cc3c(F)cc(F)cc3[nH]1)CC2)Oc1ccccc1 (stereo partly drawn) [Example 100, Propan-2-yl (2S)-2-{[(2-{[5-(4,6-difluoro-1H-indole-2-carbonyl)-4H,5H,6H,7H-[1,3]thiazolo[5,4-c]pyridin-2-yl]amino}ethoxy)(phenoxy)phosphoryl]amino}propanoate] |  | < 100 µM | 1 to 10 µM |
| O=C(c1cc2c(Cl)cc(F)cc2[nH]1)N1CCc2nc(NCC3CCOC3)sc2C1 (centres unmarked) [Example 101, 5-(4-chloro-6-fluoro-1H-indole-2-carbonyl)-N-[(oxolan-3-yl)methyl]-4H,5H,6H,7H-[1,3]thiazolo[5,4-c]pyridin-2-amine] | < 1 µM | < 5 µM |  |
| O=C(c1cc2c(F)cc(F)cc2[nH]1)N1CCc2nc(OCCO)sc2C1 [Example 102, 2-{[5-(4,6-difluoro-1H-indole-2-carbonyl)-4H,5H,6H,7H-[1,3]thiazolo[5,4-c]pyridin-2-yl]oxy}ethan-1-ol] | 1 to 10 µM | 5 to 10 µM |  |
| N#Cc1cc(F)cc2[nH]c(C(=O)N3CCc4nc(NCC5CCOC5)sc4C3)cc12 (centres unmarked) [Example 103, 5-(4-cyano-6-fluoro-1H-indole-2-carbonyl)-N-[(oxolan-3-yl)methyl]-4H,5H,6H,7H-[1,3]thiazolo[5,4-c]pyridin-2-amine] | < 1 µM | 5 to 10 µM |  |
| N#Cc1cccc2[nH]c(C(=O)N3CCc4nc(NCC5CCOC5)sc4C3)cc12 (centres unmarked) [Example 104, 5-(4-cyano-1H-indole-2-carbonyl)-N-[(oxolan-3-yl)methyl]-4H,5H,6H,7H-[1,3]thiazolo[5,4-c]pyridin-2-amine] | 1 to 10 µM | 5 to 10 µM |  |
| O=C(c1cc2c(F)c(F)c(F)cc2[nH]1)N1CCc2nc(NCC3CCOC3)sc2C1 (centres unmarked) [Example 105, 5-(4,5,6-trifluoro-1H-indole-2-carbonyl)-N-[(oxolan-3-yl)methyl]-4H,5H,6H,7H-[1,3]thiazolo[5,4-c]pyridin-2-amine] | < 1 µM | < 5 µM |  |
| O=C(c1cc2c(F)cc(F)c(F)c2[nH]1)N1CCc2nc(NCC3CCOC3)sc2C1 (centres unmarked) [Example 106, 5-(4,6,7-trifluoro-1H-indole-2-carbonyl)-N-[(oxolan-3-yl)methyl]-4H,5H,6H,7H-[1,3]thiazolo[5,4-c]pyridin-2-amine] | < 1 µM | < 5 µM |  |
| CC1Cc2nc(N)sc2CN1C(=O)c1cc2ccccc2[nH]1 (centres unmarked) [Example 107, 5-(1H-indole-2-carbonyl)-6-methyl-4H,5H,6H,7H-[1,3]thiazolo[5,4-c]pyridin-2-amine] | < 1 µM | < 5 µM |  |
| CC1c2sc(N)nc2CCN1C(=O)c1cc2ccccc2[nH]1 (centres unmarked) [Example 109, 5-(1H-indole-2-carbonyl)-4-methyl-4H,5H,6H,7H-[1,3]thiazolo[5,4-c]pyridin-2-amine] | < 100 µM | < 100 µM |  |
| CN(CC1CCOC1)c1nc2c(s1)CN(C(=O)c1cc3ccccc3[nH]1)CC2 (centres unmarked) [Example 110, 5-(1H-indole-2-carbonyl)-N-methyl-N-[(oxolan-3-yl)methyl]-4H,5H,6H,7H-[1,3]thiazolo[5,4-c]pyridin-2-amine] | 1 to 10 µM | < 100 µM |  |
| O=C(c1cc2c(F)cc(F)cc2[nH]1)N1CCc2nc(NCCO)sc2C1 [Example 111, 2-{[5-(4,6-difluoro-1H-indole-2-carbonyl)-4H,5H,6H,7H-[1,3]thiazolo[5,4-c]pyridin-2-yl]amino}ethan-1-ol] | < 1 µM | < 5 µM |  |
| O=C(c1cc2c(F)c(F)ccc2[nH]1)N1CCc2nc(NCC3CCOC3)sc2C1 (centres unmarked) [Example 112, 5-(4,5-difluoro-1H-indole-2-carbonyl)-N-[(oxolan-3-yl)methyl]-4H,5H,6H,7H-[1,3]thiazolo[5,4-c]pyridin-2-amine] | < 1 µM | < 5 µM |  |
| O=C(c1cc2ccc(Br)cc2[nH]1)N1CCc2nc(NCC3CCOC3)sc2C1 (centres unmarked) [Example 113, 5-(6-bromo-1H-indole-2-carbonyl)-N-[(oxolan-3-yl)methyl]-4H,5H,6H,7H-[1,3]thiazolo[5,4-c]pyridin-2-amine] | < 1 µM | < 5 µM |  |
| Cc1ccc(F)c2[nH]c(C(=O)N3CCc4nc(NCC5CCOC5)sc4C3)cc12 (centres unmarked) [Example 114, 5-(7-fluoro-4-methyl-1H-indole-2-carbonyl)-N-[(oxolan-3-yl)methyl]-4H,5H,6H,7H-[1,3]thiazolo[5,4-c]pyridin-2-amine] | < 1 µM | 5 to 10 µM |  |
| CCc1cccc2[nH]c(C(=O)N3CCc4nc(NCC5CCOC5)sc4C3)cc12 (centres unmarked) [Example 115, 5-(4-ethyl-1H-indole-2-carbonyl)-N-[(oxolan-3-yl)methyl]-4H,5H,6H,7H-[1,3]thiazolo[5,4-c]pyridin-2-amine] | < 1 µM | < 5 µM |  |

| Compound | EC50 (HBV; [1]) | IC50 (HBV core protein) | EC50 (HBV; HePAD38, 144 h) |
| --- | --- | --- | --- |
| O=C(c1cc2c(Cl)ccc(F)c2[nH]1)N1CCc2nc(NCC3CCOC3)sc2C1 (centres unmarked) [Example 116, 5-(4-chloro-7-fluoro-1H-indole-2-carbonyl)-N-[(oxolan-3-yl)methyl]-4H,5H,6H,7H-[1,3]thiazolo[5,4-c]pyridin-2-amine] | < 1 µM | 5 to 10 µM |  |
| N#Cc1ccc(F)c2[nH]c(C(=O)N3CCc4nc(NCC5CCOC5)sc4C3)cc12 (centres unmarked) [Example 117, 7-fluoro-2-(2-{[(oxolan-3-yl)methyl]amino}-4H,5H,6H,7H-[1,3]thiazolo[5,4-c]pyridine-5-carbonyl)-1H-indole-4-carbonitrile] | 1 to 10 µM | < 100 µM |  |
| O=C(c1cc2ccccc2[nH]1)N1CCc2nc(NCC(F)(F)F)sc2C1 [Example 118, 5-(1H-indole-2-carbonyl)-N-(2,2,2-trifluoroethyl)-4H,5H,6H,7H-[1,3]thiazolo[5,4-c]pyridin-2-amine] | < 1 µM | < 100 µM |  |
| O=C(c1cc2c(F)cc(F)cc2[nH]1)N1CCc2nc(NCC3CCOC3)sc2C1 (centres unmarked) [Example 119, 5-(4,6-difluoro-1H-indole-2-carbonyl)-N-[(oxolan-3-yl)methyl]-4H,5H,6H,7H-[1,3]thiazolo[5,4-c]pyridin-2-amine] | < 1 µM | < 5 µM |  |
| Cc1cc(F)cc2[nH]c(C(=O)N3CCc4nc(NCC5CCOC5)sc4C3)cc12 (centres unmarked) [Example 120, 5-(6-fluoro-4-methyl-1H-indole-2-carbonyl)-N-[(oxolan-3-yl)methyl]-4H,5H,6H,7H-[1,3]thiazolo[5,4-c]pyridin-2-amine] | < 1 µM | < 5 µM |  |
| O=C(c1cc2c(Cl)cccc2[nH]1)N1CCc2nc(NCC3CCOC3)sc2C1 (centres unmarked) [Example 121, 5-(4-chloro-1H-indole-2-carbonyl)-N-[(oxolan-3-yl)methyl]-4H,5H,6H,7H-[1,3]thiazolo[5,4-c]pyridin-2-amine] | < 1 µM | < 5 µM |  |
| O=C(c1cc2c(F)ccc(F)c2[nH]1)N1CCc2nc(NCC3CCOC3)sc2C1 (centres unmarked) [Example 122, 5-(4,7-difluoro-1H-indole-2-carbonyl)-N-[(oxolan-3-yl)methyl]-4H,5H,6H,7H-[1,3]thiazolo[5,4-c]pyridin-2-amine] | < 1 µM | < 5 µM |  |
| O=C(c1cc2c(C(F)(F)F)cccc2[nH]1)N1CCc2nc(NCC3CCOC3)sc2C1 (centres unmarked) [Example 123, 5-(4-(trifluoromethyl)-1H-indole-2-carbonyl)-N-[(oxolan-3-yl)methyl]-4H,5H,6H,7H-[1,3]thiazolo[5,4-c]pyridin-2-amine] | < 1 µM | 5 to 10 µM |  |
| Cc1cccc2[nH]c(C(=O)N3CCc4nc(NCC5CCOC5)sc4C3)cc12 (centres unmarked) [Example 124, 5-(4-methyl-1H-indole-2-carbonyl)-N-[(oxolan-3-yl)methyl]-4H,5H,6H,7H-[1,3]thiazolo[5,4-c]pyridin-2-amine] | < 1 µM | < 5 µM |  |
| O=C(c1cc2ccc(Cl)cc2[nH]1)N1CCc2nc(NCC3CCOC3)sc2C1 (centres unmarked) [Example 125, 5-(6-chloro-1H-indole-2-carbonyl)-N-[(oxolan-3-yl)methyl]-4H,5H,6H,7H-[1,3]thiazolo[5,4-c]pyridin-2-amine] | < 1 µM | < 5 µM |  |
| O=C(c1cc2ccccc2[nH]1)N1CCc2nc(NCC3COC3)sc2C1 [Example 126, 5-(1H-indole-2-carbonyl)-N-[(oxetan-3-yl)methyl]-4H,5H,6H,7H-[1,3]thiazolo[5,4-c]pyridin-2-amine] | 1 to 10 µM | 5 to 10 µM |  |
| O=C(c1cc2ccccc2[nH]1)N1CCc2nc(NC3COC3)sc2C1 [Example 127, 5-(1H-indole-2-carbonyl)-N-(oxetan-3-yl)-4H,5H,6H,7H-[1,3]thiazolo[5,4-c]pyridin-2-amine] | < 1 µM | < 5 µM |  |
| CC(C)Nc1nc2c(s1)CN(C(=O)c1cc3ccccc3[nH]1)CC2 [Example 128, 5-(1H-indole-2-carbonyl)-N-(propan-2-yl)-4H,5H,6H,7H-[1,3]thiazolo[5,4-c]pyridin-2-amine] | < 1 µM | < 5 µM |  |
| O=C(c1cc2ccccc2[nH]1)N1CCc2nc(NCCCO)sc2C1 [Example 129, 3-{[5-(1H-indole-2-carbonyl)-4H,5H,6H,7H-[1,3]thiazolo[5,4-c]pyridin-2-yl]amino}propan-1-ol] | < 1 µM | < 5 µM |  |
| Nc1nc2c(s1)CN(C(=O)c1cc3c(Br)c(F)ccc3[nH]1)CC2 [Example 130, 5-(4-bromo-5-fluoro-1H-indole-2-carbonyl)-4H,5H,6H,7H-[1,3]thiazolo[5,4-c]pyridin-2-amine] | 1 to 10 µM | < 100 µM |  |
